Laboratory results from US9814704B2, “Substituted pyrrolo[2,3-b]pyridines as MLK inhibitors” (The University of Rochester, priority 2008, dated 2017).
pIC50: −log10 of the molar value.

Biological target: MLK3 (Homo sapiens (Human), UniProt Q16584)
Assay: Radiometric Filter Plate MLK3 Assay
Assay type: biochemical
Conditions: 200 ng (130 nM) MLK3, 1 μM inactive MKK7b, 2 μM cold ATP (Km), 33P ATP, twenty minute incubation; read-out: MK3 IC50
Description: Radiometric Filter Plate MLK3 Assay
After a twenty minute incubation, the reactions were washed through filter plates and read on a scintillation counter. Results are shown in Table 4 below, in which +++ indicates ≦0.1 μM, ++ indicates >0.1 μM and ≦1 μM, and + indicates >1 μM.

MLK3, sequence (Q16584 whole entry): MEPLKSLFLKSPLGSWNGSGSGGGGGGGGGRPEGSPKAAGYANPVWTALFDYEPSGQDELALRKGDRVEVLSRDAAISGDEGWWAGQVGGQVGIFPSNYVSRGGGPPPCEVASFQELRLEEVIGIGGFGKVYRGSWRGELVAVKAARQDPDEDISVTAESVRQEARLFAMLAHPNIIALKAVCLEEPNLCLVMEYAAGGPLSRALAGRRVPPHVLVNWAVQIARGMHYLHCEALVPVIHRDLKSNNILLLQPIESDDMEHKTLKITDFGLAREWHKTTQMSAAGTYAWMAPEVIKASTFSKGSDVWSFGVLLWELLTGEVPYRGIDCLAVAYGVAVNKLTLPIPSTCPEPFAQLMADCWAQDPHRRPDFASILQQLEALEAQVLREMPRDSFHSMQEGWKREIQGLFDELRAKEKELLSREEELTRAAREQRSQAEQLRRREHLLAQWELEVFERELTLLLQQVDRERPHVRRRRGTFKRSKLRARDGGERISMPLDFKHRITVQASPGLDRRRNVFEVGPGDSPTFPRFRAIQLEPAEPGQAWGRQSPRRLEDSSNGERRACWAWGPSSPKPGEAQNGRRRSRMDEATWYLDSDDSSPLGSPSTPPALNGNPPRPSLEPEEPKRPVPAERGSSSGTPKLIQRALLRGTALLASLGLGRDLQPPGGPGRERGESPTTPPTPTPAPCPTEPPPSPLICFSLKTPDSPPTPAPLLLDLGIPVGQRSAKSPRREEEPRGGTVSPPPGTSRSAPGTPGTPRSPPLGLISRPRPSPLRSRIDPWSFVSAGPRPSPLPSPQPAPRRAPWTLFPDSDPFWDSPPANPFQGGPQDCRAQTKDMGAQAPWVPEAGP

Compared with `COc1cc(-c2cnc3c(c2)/C(=C\c2ccncc2)C(=O)N3)cc(OC)c1OC` [Example 129, (E)- and (Z)-3-pyridin-4-ylmethylene-5-(3,4,5-trimethoxy-phenyl)-1,3-dihydro-pyrrolo[2,3-b]pyridin-2-one], `COc1cc(-c2cnc3[nH]cc(-c4ccc(N(C)C)nc4)c3c2)cc(OC)c1OC` [Example 19, N,N-dimethyl-5-(5-(3,4,5-trimethoxyphenyl)-1H-pyrrolo[2,3-b]pyridin-3-yl)pyridin-2-amine] is higher in pIC50: under 6.00 for the first, over 7.00 for the second.

`COc1ccc(-c2cnc3[nH]c(=O)n(C4CCCC4)c3n2)cc1OC` [Example 75, 1-cyclopentyl-6-(3,4-dimethoxyphenyl)-1H-imidazo[4,5-b]pyrazin-2(3H)-one] and `COc1cc(-c2cnc3[nH]c(=O)n(C4CCc5ccccc54)c3n2)cc(OC)c1OC` (stereo not drawn) [Example 101, 1-(2,3-dihydro-1H-inden-1-yl)-6-(3,4,5-trimethoxyphenyl)-1H-imidazo[4,5-b]pyrazin-2(3H)-one] cannot be ordered by pIC50: under 6.00 for the first, under 6.00 for the second.

`COc1cc(-c2cnc3[nH]cc(-c4ccc5c(ccn5C)c4)c3c2)cc(OC)c1OC` [Example 24, 3-(1-methyl-1H-indol-5-yl)-5-(3,4,5-trimethoxyphenyl)-1H-pyrrolo[2,3-b]pyridine] and `COc1cc(-c2cnc3[nH]cc(-c4ccc(NC(C)=O)cc4)c3c2)cc(OC)c1OC` [Example 16, N-(4-(5-(3,4,5-trimethoxyphenyl)-1H-pyrrolo[2,3-b]pyridin-3-yl)phenyl)acetamide] cannot be ordered by pIC50: over 7.00 for the first, over 7.00 for the second.

`O=c1[nH]c2ncc(-c3ccc(O)cc3)nc2n1-c1ccc2cn[nH]c2c1` [Example 92, 6-(4-hydroxyphenyl)-1-(1H-indazol-6-yl)-1H-imidazo[4,5-b]pyrazin-2(3H)-one] and `O=c1[nH]c2ncc(-c3ccncc3)nc2n1-c1ccc2[nH]ccc2c1` [Example 44, 1-(1H-indol-5-yl)-6-(pyridin-4-yl)-1H-imidazo[4,5-b]pyrazin-2(3H)-one] cannot be ordered by pIC50: under 6.00 for the first, under 6.00 for the second.

Going from `CN(C)c1ccc(-c2cnc3[nH]cc(-c4ccc(F)c(Cl)c4)c3c2)cn1` [Example 22, 5-(3-(3-chloro-4-fluorophenyl)-1H-pyrrolo[2,3-b]pyridin-5-yl)-N,N-dimethylpyridin-2-amine] to `CN(C)Cc1ccc(-c2cnc3[nH]cc(-c4ccc5[nH]ccc5c4)c3c2)cc1` [Example 33, 1-(4-(3-(1H-indol-5-yl)-1H-pyrrolo[2,3-b]pyridin-5-yl)phenyl)-N,N-dimethylmethanamine], the pIC50 rises from under 6.00 to over 7.00.

Going from `O=c1[nH]c2ncc(-c3cc(F)cc(F)c3)nc2n1-c1ccc2[nH]ccc2c1` [Example 61, 6-(3,5-difluorophenyl)-1-(1H-indol-5-yl)-1H-imidazo[4,5-b]pyrazin-2(3H)-one] to `COc1cc(-c2cnc3[nH]c(=O)n(-c4ccc5[nH]ccc5c4)c3n2)ccc1N` [Example 60, 6-(4-amino-3-methoxyphenyl)-1-(1H-indol-5-yl)-1H-imidazo[4,5-b]pyrazin-2(3H)-one], the pIC50 rises from under 6.00 to over 7.00. The second is the more potent here.

Going from `Nc1ncc(-c2cnc3[nH]cc(-c4cnc(N)nc4)c3c2)cn1` [Example 20, 5,5′-(1H-pyrrolo[2,3-b]pyridine-3,5-diyl)dipyrimidin-2-amine] to `CN1CCN(Cc2ccc(-c3c[nH]c4ncc(-c5ccc(C(N)=O)cc5)cc34)cc2)CC1` [Example 162, 4-{3-[4-(4-methyl-piperazin-1-ylmethyl)-phenyl]-1H-pyrrolo[2,3-b]pyridin-5-yl}-benzamide], the pIC50 rises from under 6.00 to over 7.00. The second is the more potent here.

`CC(=O)N1CCN(C(=O)c2ccc(-c3cnc4[nH]cc(-c5ccc6[nH]ccc6c5)c4c3)cc2)CC1` [Example 146, 1-(4-{4-[3-(1H-indol-5-yl)-1H-pyrrolo[2,3-b]pyridin-5-yl]-benzoyl}-piperazin-1-yl)-ethanone] and `CC(=O)N1CCN(Cc2ccc(-c3cnc4[nH]cc(-c5ccc(C(N)=O)cc5)c4c3)cc2)CC1` [Example 157, 4-{5-[4-(4-acetyl-piperazin-1-ylmethyl)-phenyl]-1H-pyrrolo[2,3-b]pyridin-3-yl}-benzamide] cannot be ordered by pIC50: over 7.00 for the first, over 7.00 for the second.

`Cc1cc(C)cc(-c2cnc3[nH]c(=O)n(-c4ccc5c(ccn5C)c4)c3n2)c1` [Example 43, 6-(3,5-dimethylphenyl)-1-(1-methyl-1H-indol-5-yl)-1H-imidazo[4,5-b]pyrazin-2(3H)-one] and `CN1CCN(c2cc(-c3cnc4[nH]c(=O)n(-c5ccc6[nH]ccc6c5)c4n3)ccn2)CC1` [Example 66, 1-(1H-indol-5-yl)-6-(2-(4-methylpiperazin-1-yl)pyridin-4-yl)-1H-imidazo[4,5-b]pyrazin-2(3H)-one] cannot be ordered by pIC50: under 6.00 for the first, under 6.00 for the second.

For `O=C1CN(Cc2ccc(-c3cnc4[nH]cc(-c5ccc6[nH]ccc6c5)c4c3)cc2)CCN1` [Example 142, 4-{4-[3-(1H-indol-5-yl)-1H-pyrrolo[2,3-b]pyridin-5-yl]-benzyl}-piperazin-2-one], the pIC50 was over 7.00.

Same assay, conditions: read-out: MK3 IC50

`O=c1[nH]c2ncc(-c3ccc(N4CCOCC4)cc3)nc2n1-c1ccc(O)cc1` [Example 116, 1-(4-hydroxyphenyl)-6-(4-morpholinophenyl)-1H-imidazo[4,5-b]pyrazin-2(3H)-one] and `O=c1[nH]c2ncc(-c3cccc(O)c3)nc2n1-c1ccc2[nH]ccc2c1` [Example 54, 6-(3-hydroxyphenyl)-1-(1H-indol-5-yl)-1H-imidazo[4,5-b]pyrazin-2(3H)-one] fall in the same range of pIC50: 6.00 to 7.00 for the first, 6.00 to 7.00 for the second.

`COc1cc(-c2cnc3[nH]c(=O)n(CC4CC4)c3n2)ccc1OCCN1CCOCC1` [Example 107, 1-(cyclopropylmethyl)-6-(3-methoxy-4-(2-morpholinoethoxy)phenyl)-1H-imidazo[4,5-b]pyrazin-2(3H)-one] and `O=c1[nH]c2ncc(-c3ccc4[nH]ccc4c3)nc2n1-c1ccc2[nH]ccc2c1` [Example 53, 1,6-di(1H-indol-5-yl)-1H-imidazo[4,5-b]pyrazin-2(3H)-one] fall in the same range of pIC50: 6.00 to 7.00 for the first, 6.00 to 7.00 for the second.

`COc1cc(-c2cnc3c(c2)C(C)(C)C(=O)N3)cc(OC)c1OC` [Example 120, 3,3-dimethyl-5-(3,4,5-trimethoxyphenyl)-1H-pyrrolo[2,3-b]pyridin-2(3H)-one] and `COc1cc(-c2cnc3c(c2)C2(CCCC2)C(=O)N3)cc(OC)c1OC` [Example 121, 5′-(3,4,5-trimethoxyphenyl)spiro[cyclopentane-1,3′-pyrrolo[2,3-b]pyridin]-2′(1′H)-one] fall in the same range of pIC50: 6.00 to 7.00 for the first, 6.00 to 7.00 for the second.

`CN(C)c1ccc(-c2cnc3[nH]cc(-c4ccc(N(C)C)nc4)c3c2)cn1` [Example 21, 5,5′-(1H-pyrrolo[2,3-b]pyridine-3,5-diyl)bis(N,N-dimethylpyridin-2-amine)] and `COc1ccc(-c2cnc3[nH]cc(-c4ccc5[nH]ccc5c4)c3c2)cn1` [Example 6, 3-(1H-indol-5-yl)-5-(6-methoxypyridin-3-yl)-1H-pyrrolo[2,3-b]pyridine] fall in the same range of pIC50: 6.00 to 7.00 for the first, 6.00 to 7.00 for the second.

`CN1CCN(Cc2ccc(-c3cnc4[nH]cc(-c5ccc(C(N)=O)cc5)c4c3)cc2)CC1` [Example 155, 4-{5-[4-(4-methyl-piperazin-1-ylmethyl)-phenyl]-1H-pyrrolo[2,3-b]pyridin-3-yl}-benzamide] and `COc1cc(-c2cnc3[nH]cc(-c4ccc(F)cc4)c3c2)cc(OC)c1OC` [Example 166, 3-(4-fluoro-phenyl)-5-(3,4,5-trimethoxy-phenyl)-1H-pyrrolo[2,3-b]pyridine] fall in the same range of pIC50: 6.00 to 7.00 for the first, 6.00 to 7.00 for the second.

With `COc1cc(-c2cnc3[nH]cc(-c4ccc5[nH]ccc5c4)c3n2)cc(OC)c1OC` [Example 36, 7-(1H-indol-5-yl)-2-(3,4,5-trimethoxyphenyl)-5H-pyrrolo[3,2-b]pyrazine] the pIC50 was over 7.00.
